From patent US20160235749A1, “MICRO-PARTICULATED NANOCAPSULES CONTAINING LOPINAVIR WITH ENHANCED ORAL BIOAVAILABILITY AND EFFICACY” (priority 2015, published 2016)
Values after ≈ are worked out from the molar mass of the structure shown. Read-outs that look alike come from different tables or passages of the source.

What was measured:
[1] = LPV in-vitro release profile experiment; type: physicochemical; details: 0.1% Tween 80 release medium
Protocol: LPV in-vitro release kinetic experiments were carried out using the apparatus (VanKel VK7000 with a VK […] pump) comprised of six vessels containing 300 ml of 0.1% Tween 80 at 37° C. with USP paddles rotating at a speed of 50 rpm. The three formulations (F[I]-F[III]) were added to the different vessels at a LPV quantity equivalent to maintain sink conditions (10% of the pre-determined solubility). […] The samples were filtered using 0.45 μm PVDF filter and 500 μl from the filtrate was diluted in 500 μl methanol. These samples were comprised of free and encapsulated LPV, since LPV NCs diameter size is about 200 nm and the NCs can diffuse via 0.45 μm membrane pores. The remaining filtrate was then transferred to diafiltration membrane vivaspin 6 (MWCO 300,000 purchased from Sartorius Stedim Biotech) and centrifuged for 15 min at 4000 rpm. […] All samples were analyzed using HPLC. […] The graphs display both the total amount of LPV released from the MCPs, as free dissolved molecules and the LPV molecules still entrapped in the NCs, as detected following filtration of the dissolution samples through 0.45 μm PVDF filters (dimond-shaped points), as well as the free dissolved LPV molecules fraction only, as detected following a second filtration using 300,000 MW cut off vivaspin membranes which retained the NCs (square points). […]

[2] = Pharmacokinetic studies in rats (LPV plasma levels by LC-MS/MS); type: in vivo; details: male, Sprague-Dawley, rat
Protocol: Sprague-Dawley male rats weighing 270-300 g were used and were separated randomly into seven groups with 4-8 animals per group to evaluate the biofate of LPV in different formulations. The animals were housed in SPF conditions, fasted overnight (12-14 h prior to the experiment) with free access to water. The animals were given a dose of 10 mg/kg LPV with or without RTV, always at the same ratio as the Kaletra® administered orally, using gavage. The groups were orally administered according to the following experimental conditions: 1 ml of Kaletra® oral solution (LPV 80 mg/RTV 20 mg/ml) prepared by diluting the purchased commercial solution with 1:1:1 ethanol:propylene glycol:DDW to a concentration of LPV 3 mg/RTV 0.75 mg/ml; and microparticulate formulations, F[I]-F[III] prepared by dispersing the NCs embedded in MCPs in DDW to the final concentration of 40 mg/ml. Blood samples (400-500 μl) were withdrawn from the tail vein at 0, 0.5, 1, 2, 4, 8, 12 and 24 h. Saline solution was given to the animals after 30 min and then again after 3 h. The blood samples were collected in heparin containing tubes. The samples were immediately centrifuged at 10,000 rpm for 5 min, after which 200-300 μl of plasma samples were transferred to new tubes and stored at −80° C. until further analysis by LC-MS/MS as described below.
The blood samples were treated by protein precipitation in methanol, following 15 min centrifuge at 10,000 rpm. 25 ng of quinoxaline (QX) dissolved in methanol were added to each sample, as an internal standard. The supernatant layer was collected and the samples were injected into an LC-MS/MS device under the following conditions: using a Phenomenex Kenetex column (RP-C18, 50×2.1 mm, 2.6 μm, 100 A) in gradient mode; the mobile phase consisted of A=methanol/formic acid 99.9/0.1 and B=water/formic acid 99.9/0.1; the A:B ratio was 58:42 at t=0 min, during the first 1.5 min the ratio changed gradually to A:B 80:20 and remained steady until 2.1 min. […] The flow rate was maintained at 0.35 ml/min, and the column temperature was maintained at 35° C. LC-MS/MS analysis was performed with a thermo scientific Accela HPLC system coupled with a TSQ Quantum Access MAX detector in positive ionization mode. Detection and quantification were carried out by multiple-reaction monitoring with transitions from m/z 629.3 to 156 for LPV and from m/z 313.1 to 246 for QX. The tested samples were quantified against a calibration curve in the range of 0-100 ng/ml.
The change in LPV plasma concentrations following intravenous (i.v.) administration of LPV alone and combined with RTV in an aqueous solution and the pharmacokinetic (PK) profile of LPV following oral administration of various formulations is depicted in FIG. 10. […] The absolute bioavailability (F) of LPV at all dosage forms was calculated relative to the AUC (area under the curve) yielded by i.v. administration of LPV and RTV at the ratio of 4:1 (F=1.0) since the same combination of LPV and RTV, when administered orally, is considered the standard of PI care for HIV-linfected patients.

[3] = as above; type: in vivo; details: male, Sprague-Dawley, rat, oral, 10 mg/kg, read-out: absolute bioavailability compared to i.v. LPV solution
[4] = LPV solubility test in 0.1% Tween 80; type: physicochemical; details: 0.1% Tween 80 solution, aqueous with cosolvent or surfactant or cyclodextrin, thermodynamic from solid; 0.1% Tween 80, pH 7.4, 37° C., 3 h incubation
Protocol: A solubility test was performed prior to the in-vitro release profile experiment to ensure that sink conditions would prevail by adding 10 mg LPV to 10 ml of 0.1% Tween 80 pre-warmed to 37° C. in a beaker. The pH was adjusted to 7.4 and the Tween solution was kept at 37° C. and rotated at 150 rpm for 3 h. Then, 5 ml aliquots were taken and filtered using a 0.45 μm PVDF filter and diluted with methanol to a final dilution factor of 10.

[5] = plasma, rats, oral, 10 mg/kg LPV

- decrease in Cmax compared to Kaletra® oral solution ([2]; in vivo, po): 3 fold
- AUC ([2]; plasma, iv, rats, 10 mg/kg LPV): 8000 ± 1220 ng·h/mL
- clearance ([2]; plasma, iv, rats, 10 mg/kg LPV): 21.1 mL/min/kg
- half-life ([2]; plasma, iv, rats, 10 mg/kg LPV): 1.2 ± 0.2 h
- Cmax ([2]; plasma, iv, rats, i.v., 10 mg/kg LPV, read-out: Cmax (extrapolated plasma concentration at T0)): 2780 ± 203 ng/mL
- bioavailability ([2]; plasma, oral, 10 mg/kg, rats, oral, read-out: absolute bioavailability compared to LPV:RTV 4:1 i.v.): 5%
- AUC [2, 5]: 1910 ± 324 ng·h/mL
- half-life [2, 5]: 4.8 ± 0.9 h
- Cmax ([2]; plasma, rats, oral, 10 mg/kg LPV, read-out: Cmax): 780 ± 246 ng/mL
- bioavailability [3]: 24%
- solubility at 3 h [4]: 72.7 µg/mL (≈ 116 µM)
Compound: Cc1cccc(C)c1OCC(=O)N[C@@H](Cc1ccccc1)[C@@H](O)C[C@H](Cc1ccccc1)NC(=O)[C@H](C(C)C)N1CCCNC1=O [LPV, (2S)—N-[(2S,4S,5S)-5-[2-(2,6-dimethylphenoxy)acetamido]-4-hydroxy-1,6-diphenylhexan-2-yl]-3-methyl-2-(2-oxo-1,3-diazinan-1-yl)butanamide]
- LPV solubility at pH 1.2 [1]: low solubility below HPLC detection limit
